From US12398154B2, “Azaquinazoline pan-KRas inhibitors” (Mirati Therapeutics, Inc., priority 2020, dated 2025) come the findings set out here.

One assay concerns the target T1, KRas Q61H (Homo sapiens, UniProt P01116, Q61H).
T1 construct: Biotinylated KRas (corresponding to amino acids 1-169, produced at Accelegan Inc.); biotin (biotinylated); purchased Accelegan Inc
The assay is described as follows: KRas binding assay (TR-FRET displacement).

The target in another assay is KRas G12D (Homo sapiens, UniProt P01116, G12D). The assay is described as follows: biochemical.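 Note: TR-FRET displacement binding assay on KRas, read after a one-hour incubation at room temperature, IC50 fitted from percent-of-control values.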
For a further assay, the target named is KRas G12S (Homo sapiens, UniProt P01116, G12S). The assay is described as follows: biochemical.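 Note: TR-FRET displacement binding to KRas, read after one hour incubation at room temperature, IC50 from four-parameter fit of percent of control.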
In the next assay the target is T2, KRas G13D (Homo sapiens, UniProt P01116, G13D).
T2 construct: Biotinylated KRas (corresponding to amino acids 1-169, produced at Accelegan Inc.); biotin (biotinylated); purchased Accelegan Inc
The assay is described as follows: KRas binding assay (TR-FRET displacement).

A further assay deals with KRas G12A (Homo sapiens, UniProt P01116, G12A). The assay is described as follows: biochemical.
In the next assay the target is KRas WT (Homo sapiens, UniProt P01116). The experiment in a line: biochemical.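 Note: binding to KRas read as TR-FRET displacement after a one-hour room-temperature incubation, IC50 derived from percent-of-control values.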
In a further assay the target is KRas G12C (Homo sapiens, UniProt P01116, G12C). The assay is described as follows: biochemical.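 Note: binding to KRas assessed by TR-FRET displacement after one hour incubation at room temperature, potency fitted from percent-of-control values.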
The target in another assay is KRas G12V (Homo sapiens, UniProt P01116, G12V). The experiment in a line: biochemical.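 Note: KRas binding measured by TR-FRET displacement at room temperature, IC50 fitted from percent of control values.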
The next assay has as its target KRas G12R (Homo sapiens, UniProt P01116, G12R). The assay is described as follows: biochemical.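 Note: TR-FRET displacement assay of compound binding to KRas, read after one hour at room temperature, potency from a four-parameter fit of percent-of-control values.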

Sequence of KRas G12A (P01116 1-169 isoform P01116-2 G12A): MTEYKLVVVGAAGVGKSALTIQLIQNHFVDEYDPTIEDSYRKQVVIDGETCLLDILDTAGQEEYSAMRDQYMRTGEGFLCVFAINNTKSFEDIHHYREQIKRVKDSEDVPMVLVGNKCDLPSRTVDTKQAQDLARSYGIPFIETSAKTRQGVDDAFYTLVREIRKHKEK
Sequence of KRas G12V (P01116 1-169 isoform P01116-2 G12V): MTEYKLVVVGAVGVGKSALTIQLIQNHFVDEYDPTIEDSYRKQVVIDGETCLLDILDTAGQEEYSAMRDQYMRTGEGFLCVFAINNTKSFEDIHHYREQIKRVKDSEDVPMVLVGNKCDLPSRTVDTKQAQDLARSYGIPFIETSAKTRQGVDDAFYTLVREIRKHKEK
T1 sequence (P01116 1-169 isoform P01116-2 Q61H): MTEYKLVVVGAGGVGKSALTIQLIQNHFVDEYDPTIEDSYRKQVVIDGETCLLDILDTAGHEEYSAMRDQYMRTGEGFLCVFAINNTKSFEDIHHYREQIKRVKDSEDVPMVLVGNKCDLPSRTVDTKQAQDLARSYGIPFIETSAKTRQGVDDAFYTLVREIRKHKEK
Sequence of KRas G12D (P01116 1-169 isoform P01116-2 G12D): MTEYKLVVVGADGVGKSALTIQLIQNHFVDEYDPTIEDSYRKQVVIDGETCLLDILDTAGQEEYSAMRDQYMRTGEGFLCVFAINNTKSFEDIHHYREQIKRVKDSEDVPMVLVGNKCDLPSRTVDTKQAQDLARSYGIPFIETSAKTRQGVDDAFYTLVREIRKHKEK
Sequence of KRas G12S (P01116 1-169 isoform P01116-2 G12S): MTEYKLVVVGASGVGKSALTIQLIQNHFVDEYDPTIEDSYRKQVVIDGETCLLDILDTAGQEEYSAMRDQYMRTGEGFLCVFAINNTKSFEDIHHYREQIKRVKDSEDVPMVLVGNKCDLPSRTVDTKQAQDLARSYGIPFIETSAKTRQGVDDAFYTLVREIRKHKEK
Sequence of KRas WT (P01116 1-169 isoform P01116-2): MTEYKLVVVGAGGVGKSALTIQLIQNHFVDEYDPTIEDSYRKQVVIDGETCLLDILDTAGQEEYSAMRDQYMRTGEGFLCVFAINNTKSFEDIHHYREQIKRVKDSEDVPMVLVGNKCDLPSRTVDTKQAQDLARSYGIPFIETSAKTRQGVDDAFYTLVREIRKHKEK
Sequence of KRas G12C (P01116 1-169 isoform P01116-2 G12C): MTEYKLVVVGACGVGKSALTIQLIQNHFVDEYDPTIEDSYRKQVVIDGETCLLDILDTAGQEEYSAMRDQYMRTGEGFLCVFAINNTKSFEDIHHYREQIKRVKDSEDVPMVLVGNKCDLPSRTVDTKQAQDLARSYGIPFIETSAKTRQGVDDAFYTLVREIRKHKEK
T2 sequence (P01116 1-169 isoform P01116-2 G13D): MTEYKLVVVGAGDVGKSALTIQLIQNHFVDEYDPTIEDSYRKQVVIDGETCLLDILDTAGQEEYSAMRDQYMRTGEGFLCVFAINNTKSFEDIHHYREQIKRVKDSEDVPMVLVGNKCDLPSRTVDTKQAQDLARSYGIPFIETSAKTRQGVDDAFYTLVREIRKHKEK
Sequence of KRas G12R (P01116 1-169 isoform P01116-2 G12R): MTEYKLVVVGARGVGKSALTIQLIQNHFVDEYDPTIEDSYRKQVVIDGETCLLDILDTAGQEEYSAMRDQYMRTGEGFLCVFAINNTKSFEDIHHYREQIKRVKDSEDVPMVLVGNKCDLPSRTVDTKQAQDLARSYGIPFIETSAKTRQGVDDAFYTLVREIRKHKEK

Consider `O=S1(=O)NCC2(CCCN(c3nc(OCC45CCCN4CCC5)nc4c(F)c(-c5cccc6cccc(F)c56)ncc34)C2)N1` (stereo not drawn) [Example 252, 7-(8-fluoro-7-(8-fluoronaphthalen-1-yl)-2-((tetrahydro-1H-pyrrolizin-7a(5H)-yl)methoxy)pyrido[4,3-d]pyrimidin-4-yl)-2-thia-1,3,7-triazaspiro[4.5]decane 2,2-dioxide], for which the IC50 on KRas Q61H was determined as 9 nM; on KRas G12D, 0.011 µM; against KRas G12S, 0.008 µM; at KRas G13D it was 6 nM; against KRas G12A it was 0.005 µM; on KRas WT, 0.007 µM. Besides, the figures for the IC50 on KRas G12C, against KRas G12V and against KRas G12R were 0.017 µM, 0.017 µM and 0.027 µM, respectively.

As to `Fc1c(-c2cccc3cccc(F)c23)ncc2c(N3CC(n4cncn4)C3)nc(OCC34CCCN3CCC4)nc12` [Example 253, 4-(3-(1H-1,2,4-triazol-1-yl)azetidin-1-yl)-8-fluoro-7-(8-fluoronaphthalen-1-yl)-2-((hexahydro-1H-pyrrolizin-7a-yl)methoxy)pyrido[4,3-d]pyrimidine], the IC50 on KRas Q61H was found to be 7720 nM; against KRas G12D, 67.3 µM; against KRas G12S, 3.59 µM; on KRas G13D it was 14100 nM; against KRas G12A it was 3.03 µM; at KRas WT it was 6 µM. In addition, the IC50 against KRas G12C was determined as 2.41 µM; against KRas G12V, 4.35 µM; at KRas G12R, 4.08 µM.

Regarding `CN(C)CC1(COc2nc(N3CCCC(C)(O)C3)c3cnc(-c4cccc5cccc(F)c45)c(F)c3n2)CC1` (stereo not drawn) [Example 256, 1-(2-((1-((dimethylamino)methyl)cyclopropyl)methoxy)-8-fluoro-7-(8-fluoronaphthalen-1-yl)pyrido[4,3-d]pyrimidin-4-yl)-3-methylpiperidin-3-ol], the IC50 on KRas Q61H stood at 6020 nM; at KRas G12D it was 2.42 µM; on KRas G12S, 5.31 µM; on KRas G13D it was 3800 nM; against KRas G12A, 4.63 µM; on KRas WT it was 4.03 µM. Moreover, the IC50 against KRas G12C is 4.05 µM; at KRas G12V, 4.54 µM; against KRas G12R it was 8.14 µM.

`CC1(O)CCCN(c2nc(OCC3(CN4CCCC4)CC3)nc3c(F)c(-c4cccc5cccc(F)c45)ncc23)C1` (stereo not drawn) [Example 257, 1-(8-fluoro-7-(8-fluoronaphthalen-1-yl)-2-((1-(pyrrolidin-1-ylmethyl)cyclopropyl)methoxy)pyrido[4,3-d]pyrimidin-4-yl)-3-methylpiperidin-3-ol]: the IC50 at KRas Q61H is 6030 nM; at KRas G12D, 2.43 µM; against KRas G12S it was 5.22 µM; on KRas G13D it was 3960 nM; against KRas G12A, 5.49 µM; against KRas WT, 4.03 µM. In addition, the IC50 against KRas G12C amounted to 4 µM; against KRas G12V, 3.79 µM; against KRas G12R it was 6.91 µM.

Turning to `NC(=O)c1cc2n(n1)CCCN(c1nc(OCC34CCCN3CCC4)nc3c(F)c(-c4cccc5cccc(F)c45)ncc13)C2` [Example 258, 5-(8-fluoro-7-(8-fluoronaphthalen-1-yl)-2-((hexahydro-1H-pyrrolizin-7a-yl)methoxy)pyrido[4,3-d]pyrimidin-4-yl)-5,6,7,8-tetrahydro-4H-pyrazolo[1,5-a][1,4]diazepine-2-carboxamide], the IC50 at KRas Q61H worked out at 4610 nM; against KRas G12D it was 0.32 µM; on KRas G12S, 1.01 µM; on KRas G13D it was 4380 nM; at KRas G12A, 2.07 µM; against KRas WT it was 3.25 µM. The results for the half-maximal inhibitory concentration (IC50) against KRas G12C, against KRas G12V and against KRas G12R were 1.38 µM, 0.858 µM and 1.18 µM, respectively.

The term IC50 denotes the midpoint of a concentration-inhibition curve. A high value points to lower potency.
